# Source: paper PMC7101356, “Cross-site and cross-platform variability of automated patch clamp assessments of drug effects on human cardiac currents in recombinant cells” (Scientific Reports, 2020)
# Assays:
# hCav1.2 = hCav1.2 (Homo sapiens, UniProt Q13936); assay: Automated patch clamp, hCav1.2 current block
# hERG [1] = molecular target: T1, hERG (Homo sapiens, UniProt Q12809); assay: Automated patch clamp, hERG current block (consensus step-ramp protocol); conditions: for hERG K+ current inhibition, Mean, at maximal concentration: max conc [mol/L]: bep 3.00E-07, cpz 3.00E-06, cis 3.00E-07, dil 1.00E-04, dof 1.00E-07, mex 1.00E-04, ond 1.00E-05, qui 1.00E-05, ran 1.00E-04, sot 3.00E-04, ter 3.00E-07, ver 1.00E-06; for hERG K+ current inhibition, Mean, at minimal concentration: min conc [mol/L]: bep 1.00E-08, cpz 1.00E-07, cis 1.00E-09, dil 3.00E-06, dof 1.00E-09, mex 1.00E-06, ond 3.00E-07, qui 1.00E-07, ran 3.00E-06, sot 1.00E-05, ter 1.00E-08, ver 3.00E-08
# T1 sequence (Q12809 whole entry): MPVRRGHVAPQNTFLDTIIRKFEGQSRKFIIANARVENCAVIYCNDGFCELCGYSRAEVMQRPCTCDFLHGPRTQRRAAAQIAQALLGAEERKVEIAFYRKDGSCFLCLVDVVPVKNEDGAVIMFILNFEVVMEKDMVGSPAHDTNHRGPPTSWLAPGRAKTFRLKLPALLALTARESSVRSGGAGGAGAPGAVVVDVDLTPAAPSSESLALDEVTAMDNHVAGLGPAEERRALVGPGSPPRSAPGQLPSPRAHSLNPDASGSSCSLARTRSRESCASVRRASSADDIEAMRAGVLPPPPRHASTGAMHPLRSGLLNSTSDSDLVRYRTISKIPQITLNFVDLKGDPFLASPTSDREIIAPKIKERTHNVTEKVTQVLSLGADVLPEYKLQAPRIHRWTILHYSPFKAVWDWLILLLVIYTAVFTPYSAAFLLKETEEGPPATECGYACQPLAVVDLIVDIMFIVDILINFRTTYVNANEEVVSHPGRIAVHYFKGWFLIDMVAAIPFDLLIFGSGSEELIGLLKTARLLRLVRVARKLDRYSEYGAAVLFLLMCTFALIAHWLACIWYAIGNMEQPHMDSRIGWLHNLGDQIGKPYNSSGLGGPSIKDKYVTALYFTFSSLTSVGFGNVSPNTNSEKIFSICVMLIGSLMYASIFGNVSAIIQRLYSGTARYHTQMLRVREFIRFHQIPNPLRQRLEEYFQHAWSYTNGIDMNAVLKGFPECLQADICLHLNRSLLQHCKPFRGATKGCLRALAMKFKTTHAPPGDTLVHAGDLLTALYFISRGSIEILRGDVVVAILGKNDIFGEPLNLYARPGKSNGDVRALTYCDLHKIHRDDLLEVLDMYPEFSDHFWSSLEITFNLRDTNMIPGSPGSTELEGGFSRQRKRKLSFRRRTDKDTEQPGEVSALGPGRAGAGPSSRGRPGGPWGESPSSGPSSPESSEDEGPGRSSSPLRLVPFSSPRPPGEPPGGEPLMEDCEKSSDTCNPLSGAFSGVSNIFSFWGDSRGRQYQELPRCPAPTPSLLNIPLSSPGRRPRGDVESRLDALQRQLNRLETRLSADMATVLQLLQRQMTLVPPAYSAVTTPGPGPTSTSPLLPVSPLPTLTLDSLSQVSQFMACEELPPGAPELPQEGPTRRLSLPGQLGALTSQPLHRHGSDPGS
# hERG [2] = molecular target: T1, hERG; assay: Automated patch clamp, hERG current block, Milnes protocol (site s06); format: cell-based; parameters: expressed in transfected cells; host or cells: HEK293 or CHO, depending on site (site s06, Milnes protocol: HEK293); conditions: s06_p4, HEK293, 22–24 °C
# Text: Thus, a single test site (s06) elicited hERG current with a 10-s depolarizing voltage step from −80 mV to 0 mV every 25 s (Milnes protocol, see Milnes et al.[14]).
# The steady state current at each concentration was used to determine the concentration-response relationships. Mean concentration-response data were fitted to a standard sigmoidal four-parameter logistic equation (GraphPad Prism 7; GraphPad Inc., La Jolla, CA) of the form: Y=Bottom+(Top−Bottom)/(1+10^∧(LogIC50−X)∗HillSlope) where Y is the current inhibition (in % of pre-drug control), X is the logarithm of drug concentration, and IC50 is the drug concentration producing half-maximal current inhibition. Curve fitting was performed using the following constraints: Top = 100%, Bottom = 0%, Hill Slope <2. No curve fitting was performed in cases with an obvious lack of a concentration-dependent current inhibition and/or small effect size (approximately ≤20%).
# This protocol consists of a set of two 25-s-long pulse protocols, with one protocol (“Pulse”) containing a prolonged 10-s-long depolarizing test pulse (0 mV) followed by a 14-s-long return pulse to −80 mV, and a second protocol “No-Pulse” consisting of the same pulse structure without the depolarizing test pulse[18].
# [3] = s03_p2, HEK293, room temperature
# [4] = s16_p3, HEK293, room temperature
# hCav1.2, sequence (Q13936 whole entry): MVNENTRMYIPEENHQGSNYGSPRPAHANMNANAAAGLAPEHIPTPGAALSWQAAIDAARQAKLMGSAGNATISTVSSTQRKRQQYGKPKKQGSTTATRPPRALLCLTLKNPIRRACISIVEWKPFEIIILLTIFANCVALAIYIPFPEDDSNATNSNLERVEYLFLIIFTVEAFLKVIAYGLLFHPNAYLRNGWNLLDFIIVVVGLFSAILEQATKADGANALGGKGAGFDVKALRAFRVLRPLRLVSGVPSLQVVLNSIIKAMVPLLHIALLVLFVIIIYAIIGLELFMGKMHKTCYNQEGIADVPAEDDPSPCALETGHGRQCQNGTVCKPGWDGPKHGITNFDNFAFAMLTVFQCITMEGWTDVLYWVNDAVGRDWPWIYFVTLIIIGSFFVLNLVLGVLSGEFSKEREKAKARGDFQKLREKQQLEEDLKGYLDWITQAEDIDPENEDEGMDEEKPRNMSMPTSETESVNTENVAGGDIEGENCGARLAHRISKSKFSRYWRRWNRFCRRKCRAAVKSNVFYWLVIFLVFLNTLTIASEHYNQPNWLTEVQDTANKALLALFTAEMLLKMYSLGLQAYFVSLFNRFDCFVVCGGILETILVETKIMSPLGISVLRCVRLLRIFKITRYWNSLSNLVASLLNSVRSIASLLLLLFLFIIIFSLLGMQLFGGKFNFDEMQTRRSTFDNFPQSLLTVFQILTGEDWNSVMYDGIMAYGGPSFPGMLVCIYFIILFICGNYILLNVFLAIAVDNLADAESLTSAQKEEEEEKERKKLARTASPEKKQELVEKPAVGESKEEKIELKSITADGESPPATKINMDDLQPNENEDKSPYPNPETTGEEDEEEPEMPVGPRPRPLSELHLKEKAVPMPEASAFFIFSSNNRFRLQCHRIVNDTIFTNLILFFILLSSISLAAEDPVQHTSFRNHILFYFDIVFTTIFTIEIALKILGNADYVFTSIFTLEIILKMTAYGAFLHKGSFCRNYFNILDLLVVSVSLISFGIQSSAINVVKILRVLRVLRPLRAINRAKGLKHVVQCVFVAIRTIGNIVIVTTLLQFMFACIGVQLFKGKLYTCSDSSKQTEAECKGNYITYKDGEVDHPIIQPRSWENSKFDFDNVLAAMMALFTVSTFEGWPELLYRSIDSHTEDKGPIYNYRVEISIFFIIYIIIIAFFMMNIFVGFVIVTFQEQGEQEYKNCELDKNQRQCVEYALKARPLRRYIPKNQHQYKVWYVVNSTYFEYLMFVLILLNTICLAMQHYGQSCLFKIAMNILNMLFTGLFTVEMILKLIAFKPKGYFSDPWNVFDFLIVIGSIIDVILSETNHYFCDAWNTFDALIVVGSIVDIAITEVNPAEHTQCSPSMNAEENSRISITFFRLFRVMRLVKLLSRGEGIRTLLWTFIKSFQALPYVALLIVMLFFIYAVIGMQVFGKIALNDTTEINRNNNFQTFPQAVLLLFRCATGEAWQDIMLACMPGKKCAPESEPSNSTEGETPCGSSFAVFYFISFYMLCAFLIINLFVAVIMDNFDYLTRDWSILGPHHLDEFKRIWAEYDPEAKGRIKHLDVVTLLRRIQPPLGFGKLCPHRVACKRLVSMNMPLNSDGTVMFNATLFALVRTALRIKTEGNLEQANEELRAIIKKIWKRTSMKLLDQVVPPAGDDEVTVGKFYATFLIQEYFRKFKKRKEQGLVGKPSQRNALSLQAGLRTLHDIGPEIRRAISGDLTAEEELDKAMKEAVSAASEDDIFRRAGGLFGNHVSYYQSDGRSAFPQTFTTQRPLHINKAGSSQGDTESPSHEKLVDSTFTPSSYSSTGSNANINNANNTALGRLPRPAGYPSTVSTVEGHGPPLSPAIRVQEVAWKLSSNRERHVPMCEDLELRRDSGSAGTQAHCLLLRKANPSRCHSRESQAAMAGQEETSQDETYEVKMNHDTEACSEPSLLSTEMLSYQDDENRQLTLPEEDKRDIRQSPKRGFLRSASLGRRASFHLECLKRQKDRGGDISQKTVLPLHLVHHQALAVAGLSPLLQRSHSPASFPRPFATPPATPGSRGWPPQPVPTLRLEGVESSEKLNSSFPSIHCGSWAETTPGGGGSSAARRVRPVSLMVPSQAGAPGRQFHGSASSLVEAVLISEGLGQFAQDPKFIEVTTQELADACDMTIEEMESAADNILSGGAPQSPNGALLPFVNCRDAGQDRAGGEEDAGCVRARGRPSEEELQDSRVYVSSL
# hCav1.2, sequence (Q08289 whole entry partner): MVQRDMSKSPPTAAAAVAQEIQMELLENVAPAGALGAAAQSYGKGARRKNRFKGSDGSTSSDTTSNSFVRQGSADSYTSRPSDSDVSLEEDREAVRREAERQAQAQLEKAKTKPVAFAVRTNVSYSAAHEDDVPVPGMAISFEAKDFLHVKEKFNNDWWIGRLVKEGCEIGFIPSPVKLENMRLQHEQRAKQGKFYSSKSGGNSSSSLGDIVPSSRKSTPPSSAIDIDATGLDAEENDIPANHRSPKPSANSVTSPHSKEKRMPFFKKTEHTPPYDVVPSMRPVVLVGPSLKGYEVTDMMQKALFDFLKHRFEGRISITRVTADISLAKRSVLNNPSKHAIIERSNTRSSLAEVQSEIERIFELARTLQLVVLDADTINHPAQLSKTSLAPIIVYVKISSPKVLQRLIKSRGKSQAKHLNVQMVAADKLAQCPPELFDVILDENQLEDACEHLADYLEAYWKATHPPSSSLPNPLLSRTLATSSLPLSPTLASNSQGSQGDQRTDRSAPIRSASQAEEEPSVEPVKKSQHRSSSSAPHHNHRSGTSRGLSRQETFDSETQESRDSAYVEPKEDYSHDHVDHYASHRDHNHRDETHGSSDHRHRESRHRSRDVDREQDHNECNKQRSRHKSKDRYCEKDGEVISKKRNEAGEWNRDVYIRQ
# hCav1.2, sequence (P54289 25-956 partner limits assumed): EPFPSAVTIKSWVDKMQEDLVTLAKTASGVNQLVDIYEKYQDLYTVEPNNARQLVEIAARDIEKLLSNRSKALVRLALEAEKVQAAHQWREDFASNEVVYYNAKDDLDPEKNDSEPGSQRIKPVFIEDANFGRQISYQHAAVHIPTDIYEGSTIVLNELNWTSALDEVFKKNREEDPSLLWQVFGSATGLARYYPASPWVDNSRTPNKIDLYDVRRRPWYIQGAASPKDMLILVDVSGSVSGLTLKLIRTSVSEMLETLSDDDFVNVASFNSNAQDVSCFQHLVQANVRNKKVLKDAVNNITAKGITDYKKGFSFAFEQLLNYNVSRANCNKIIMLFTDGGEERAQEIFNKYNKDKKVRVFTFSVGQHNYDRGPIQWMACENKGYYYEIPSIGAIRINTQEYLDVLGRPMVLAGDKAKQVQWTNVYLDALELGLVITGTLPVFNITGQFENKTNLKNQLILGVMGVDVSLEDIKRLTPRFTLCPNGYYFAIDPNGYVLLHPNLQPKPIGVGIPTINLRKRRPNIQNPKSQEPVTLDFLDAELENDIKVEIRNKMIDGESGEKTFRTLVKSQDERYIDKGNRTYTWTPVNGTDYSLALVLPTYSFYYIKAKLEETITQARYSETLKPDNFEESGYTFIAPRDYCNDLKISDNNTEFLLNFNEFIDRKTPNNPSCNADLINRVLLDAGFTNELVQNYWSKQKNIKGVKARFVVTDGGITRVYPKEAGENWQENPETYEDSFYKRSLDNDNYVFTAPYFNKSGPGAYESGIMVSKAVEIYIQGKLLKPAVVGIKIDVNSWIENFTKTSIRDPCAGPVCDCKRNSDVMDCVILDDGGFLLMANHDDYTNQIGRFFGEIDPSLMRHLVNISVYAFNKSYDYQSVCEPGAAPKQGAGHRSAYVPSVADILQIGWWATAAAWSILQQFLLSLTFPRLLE
# hCav1.2, sequence (P54289 957-1103 partner limits assumed): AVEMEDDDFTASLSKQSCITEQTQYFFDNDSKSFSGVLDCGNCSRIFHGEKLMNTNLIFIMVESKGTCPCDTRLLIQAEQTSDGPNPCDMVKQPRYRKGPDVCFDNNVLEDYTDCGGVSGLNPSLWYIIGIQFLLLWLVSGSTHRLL
smiles,measurement,setting,value
"Cc1nccn1CC1CCc2c(c3ccccc3n2C)C1=O (centres unmarked) [ond, ondansetron]","log IC50, half-maximal inhibitory concentration",hCav1.2; site s01_p1,no inh.
same,"Peak hCav1.2 Ca2+ current inhibition, Mean","hCav1.2; site s01_p1, 3.00E-07 mol/L",3.2%
same,"log IC50, half-maximal inhibitory concentration","hCav1.2; site s02_p2, corrected for rundown",no inh.
same,"Peak hCav1.2 Ca2+ current inhibition, Mean","hCav1.2; site s02_p2, corrected for rundown, 3.00E-07 mol/L",-6.3%
same,"nH, Hill slope",hCav1.2; site s04_p3,0.60
same,"Peak hCav1.2 Ca2+ current inhibition, Mean","hCav1.2; site s04_p3, 1.00E-05 mol/L",16.1%
same,"Peak hCav1.2 Ca2+ current inhibition, Mean","hCav1.2; site s04_p3, 3.00E-07 mol/L",2.6%
same,"log IC50, half-maximal inhibitory concentration",hCav1.2; site s06_p4,no inh.
same,"Peak hCav1.2 Ca2+ current inhibition, Mean","hCav1.2; site s06_p4, 3.00E-07 mol/L",18.9%
same,"log IC50, half-maximal inhibitory concentration",hCav1.2; site s11_p1,no inh.
same,"Peak hCav1.2 Ca2+ current inhibition, Mean","hCav1.2; site s11_p1, 3.00E-07 mol/L",19.7%
same,"nH, Hill slope",hCav1.2; site s14_p1,2.00
same,"Peak hCav1.2 Ca2+ current inhibition, Mean","hCav1.2; site s14_p1, 3.00E-07 mol/L",4.0%
same,"nH, Hill slope",hCav1.2; site s16_p3,0.42
same,"Peak hCav1.2 Ca2+ current inhibition, Mean","hCav1.2; site s16_p3, 3.00E-07 mol/L",20.6%
same,"log IC50, half-maximal inhibitory concentration",hCav1.2; site s18_p1,no inh.
same,"Peak hCav1.2 Ca2+ current inhibition, Mean","hCav1.2; site s18_p1, 3.00E-07 mol/L",16.9%
same,inhibition at 1e-05 mol/L,"hERG [1]; human, recombinant cells expressing hERG, hERG K+ current inhibition, Mean, site_platform s07_p5, 1.00E-05 mol/L",101%
same,inhibition at 3e-07 mol/L,"hERG [1]; human, recombinant cells expressing hERG, hERG K+ current inhibition, Mean, site_platform s07_p5, 3.00E-07 mol/L",17%
same,"inhibition at 4 min, 1e-05 mol/L","hERG [1]; human, recombinant cells expressing hERG, hERG K+ current inhibition, Mean, site_platform s10_p3, 1.00E-05 mol/L",71.8%
same,"inhibition at 4 min, 3e-07 mol/L","hERG [1]; human, recombinant cells expressing hERG, hERG K+ current inhibition, Mean, site_platform s10_p3, 3.00E-07 mol/L",9.7%
same,"inhibition at 7 min, 1e-05 mol/L","hERG [1]; human, recombinant cells expressing hERG, hERG K+ current inhibition, Mean, site_platform s11_p1, 1.00E-05 mol/L",89.6%
same,"inhibition at 7 min, 3e-07 mol/L","hERG [1]; human, recombinant cells expressing hERG, hERG K+ current inhibition, Mean, site_platform s11_p1, 3.00E-07 mol/L",11.6%
same,inhibition at 1e-05 mol/L,"hERG [1]; human, recombinant cells expressing hERG, hERG K+ current inhibition, Mean, site_platform s12_p2, 1.00E-05 mol/L",91.6%
same,inhibition at 3e-07 mol/L,"hERG [1]; human, recombinant cells expressing hERG, hERG K+ current inhibition, Mean, site_platform s12_p2, 3.00E-07 mol/L",19.3%
same,inhibition at 1e-05 mol/L,"hERG [1]; human, recombinant cells expressing hERG, hERG K+ current inhibition, Mean, site_platform s13_p2, 1.00E-05 mol/L",90%
same,inhibition at 3e-07 mol/L,"hERG [1]; human, recombinant cells expressing hERG, hERG K+ current inhibition, Mean, site_platform s13_p2, 3.00E-07 mol/L",11.4%
same,"inhibition at 7 min, 1e-05 mol/L","hERG [1]; human, recombinant cells expressing hERG, hERG K+ current inhibition, Mean, site_platform s14_p1, 1.00E-05 mol/L",89.4%
same,"inhibition at 7 min, 3e-07 mol/L","hERG [1]; human, recombinant cells expressing hERG, hERG K+ current inhibition, Mean, site_platform s14_p1, 3.00E-07 mol/L",58.7%
same,"hERG K+ current nH, Hill slope","hERG [1]; s01_p1, CHO, 23 °C",1.06
same,"hERG K+ current inhibition, Mean, at maximal concentration","hERG [1]; s01_p1, CHO, 23 °C",83.1%
same,"hERG K+ current inhibition, Mean, at minimal concentration","hERG [1]; s01_p1, CHO, 23 °C",8.8%
same,"hERG K+ current nH, Hill slope","hERG [1]; s02_p2, HEK293, 22–26 °C",1.07
same,"hERG K+ current inhibition, Mean, at maximal concentration","hERG [1]; s02_p2, HEK293, 22–26 °C",79.8%
same,"hERG K+ current inhibition, Mean, at minimal concentration","hERG [1]; s02_p2, HEK293, 22–26 °C",6.1%
same,"hERG K+ current nH, Hill slope",hERG [1]; [3],1.08
same,"hERG K+ current inhibition, Mean, at maximal concentration",hERG [1]; [3],99.9%
same,"hERG K+ current inhibition, Mean, at minimal concentration",hERG [1]; [3],37.2%
same,"hERG K+ current nH, Hill slope","hERG [1]; s04_p3, CHO, room temperature",0.97
same,"hERG K+ current inhibition, Mean, at maximal concentration","hERG [1]; s04_p3, CHO, room temperature",90.6%
same,"hERG K+ current inhibition, Mean, at minimal concentration","hERG [1]; s04_p3, CHO, room temperature",22.1%
same,"hERG K+ current nH, Hill slope","hERG [1]; s05_p4, HEK293, 22–24 °C",1.32
same,"hERG K+ current inhibition, Mean, at maximal concentration","hERG [1]; s05_p4, HEK293, 22–24 °C",93.2%
same,"hERG K+ current inhibition, Mean, at minimal concentration","hERG [1]; s05_p4, HEK293, 22–24 °C",9.6%
same,"hERG K+ current nH, Hill slope","hERG [1]; s15_p1, HEK293, 22–23 °C",0.88
same,"hERG K+ current inhibition, Mean, at maximal concentration","hERG [1]; s15_p1, HEK293, 22–23 °C",87.4%
same,"hERG K+ current inhibition, Mean, at minimal concentration","hERG [1]; s15_p1, HEK293, 22–23 °C",25.2%
same,"hERG K+ current nH, Hill slope",hERG [1]; [4],1.01
same,"hERG K+ current inhibition, Mean, at maximal concentration",hERG [1]; [4],84.1%
same,"hERG K+ current inhibition, Mean, at minimal concentration",hERG [1]; [4],11.9%
same,"hERG K+ current nH, Hill slope","hERG [1]; s18_p1, CHO, 35 °C",1.05
same,"hERG K+ current inhibition, Mean, at maximal concentration","hERG [1]; s18_p1, CHO, 35 °C",85.6%
same,"hERG K+ current inhibition, Mean, at minimal concentration","hERG [1]; s18_p1, CHO, 35 °C",12.7%
same,"hERG K+ current nH, Hill slope","hERG [1]; s19_p3, CHO, room temperature",1.01
same,"hERG K+ current inhibition, Mean, at maximal concentration","hERG [1]; s19_p3, CHO, room temperature",92.9%
same,"hERG K+ current inhibition, Mean, at minimal concentration","hERG [1]; s19_p3, CHO, room temperature",25.8%
same,"nH (Hill slope), hERG K+ current inhibition",hERG [1]; site_platform s07_p5,1.26
same,"nH (Hill slope), hERG K+ current inhibition",hERG [1]; site_platform s10_p3,0.98
same,"nH (Hill slope), hERG K+ current inhibition",hERG [1]; site_platform s11_p1,1.10
same,"nH (Hill slope), hERG K+ current inhibition",hERG [1]; site_platform s12_p2,1.03
same,"nH (Hill slope), hERG K+ current inhibition",hERG [1]; site_platform s13_p2,1.19
same,"nH (Hill slope), hERG K+ current inhibition",hERG [1]; site_platform s14_p1,0.47
same,"hERG K+ current nH, Hill slope",hERG [2],1.05
same,"hERG K+ current inhibition, Mean, at maximal concentration","hERG [2]; max conc [mol/L]: bep 3.00E-07, cpz 3.00E-06, cis 3.00E-07, dil 1.00E-04, dof 1.00E-07, mex 1.00E-04, ond 1.00E-05, qui 1.00E-05, ran 1.00E-04, sot 3.00E-04, ter 3.00E-07, ver 1.00E-06",95.5%
same,"hERG K+ current inhibition, Mean, at minimal concentration","hERG [2]; min conc [mol/L]: bep 1.00E-08, cpz 1.00E-07, cis 1.00E-09, dil 3.00E-06, dof 1.00E-09, mex 1.00E-06, ond 3.00E-07, qui 1.00E-07, ran 3.00E-06, sot 1.00E-05, ter 1.00E-08, ver 3.00E-08",25.3%
